Measured values as given in patent US11643385B2, “Polymorphic forms of RAD1901-2HCl” (RADIUS PHARMACEUTICALS, INC., priority 2018, dated 2023).
“Also recorded” adds a separate entry of the source. Like-named read-outs stand apart in the source and are kept apart here. Marks after values point to notes of the source that are not given here.

Tests used:
[1] = Solubility assessment and polymorph screen on Sample 1 (Form 1) of RAD1901-2HCl in 24 solvent systems; type: physicochemical; conditions: for Solubility observation at 10 vol.: 25 mg Sample 1, 10 vol. solvent (solvent per sample ID), stirred 25° C., shaken 50° C.; for Solubility observation at 20 vol.: 20 vol. solvent (solvent per sample ID); for Solubility observation at 40 vol.: 40 vol. solvent (solvent per sample ID); for Solubility observation at 60 vol.: 60 vol. solvent (solvent per sample ID); for XRPD of recovered solid (form): solid recovered after maturation, cooling or evaporation; for Observation after Cooled to 5° C.: clear solutions cooled 50° C. to 5° C. at 0.1° C./min; for Observation after Evaporation: slow evaporation at ambient conditions
Experimental: Solubility assessment was carried out on the Sample 1 of RAD1901-2HCl (majorly Form 1 shown by XRPD) in 24 solvent systems in HPLC vials (sample IDs: A1 to A24). RAD1901-2HCl (25 mg) was treated with increasing volumes of solvent until the material fully dissolved or until a maximum of 60 vol had been used (Table 13).
After each addition of solvent, the system was stirred for 5 to 10 minutes at 25° C., then shaken at 50° C. for 5 to 10 minutes, and observations made. Samples were allowed to stand at room temperature for 5 min before the addition of a new aliquot of solvent. After the assessment was completed, the suspensions obtained were matured (maturation) and the clear solutions were cooled (cooling) and slowly evaporated (evaporation) as described below. All solids recovered from maturation, cooling and evaporation experiments were analyzed by high resolution XRPD.
The suspensions obtained during the solubility assessment were matured by shaken in a maturation chamber between 50° C. and RT (8 hr per cycle) for up to 5 days. Then the mixture was allowed to stand at room temperature for 10 minutes. The resulting solids were filtered and air dried and analyzed by XRPD. The clear solutions obtained during maturation were evaporated in ambient conditions and the resulting residues were analyzed by XRPD.
The clear solutions obtained during the course of the solubility assessment were cooled on a Polar Bear device from 50° C. to 5° C. at 0.1° C./min. Solids obtained upon cooling were recovered from the vials, air dried and analyzed by XRPD. If no solid was obtained, the solutions were evaporated slowly through a needle inserted into the septum cap of the vial until a solid appeared at ambient conditions and the resulting solids were filtered, air dried and analyzed by XRPD.

[2] = Solubility assessment and polymorph screen on amorphous RAD1901-2HCl; type: physicochemical; conditions: for XRPD post 50° C./RT (form): after maturation at 50° C./RT; for Solubility observation at 10 vol.: amorphous RAD1901-2HCl, 10 vol. solvent (solvent per sample ID); for XRPD post 25° C. (form): after maturation at 25° C.
Experimental: In a scale-up preparation of amorphous RAD1901-2HCl, RAD1901-2HCl (600 mg) was dissolved in water (20 vol., 12 mL) and filtered to remove any remaining solid particles. The solution was then aliquoted into 24 HPLC vials, frozen in a dry ice/acetone bath and the solvent removed by lyophilisation. Solids produced by lyophilization were used directly in solubility assessment and polymorph screens in Example 4.
Amorphous RAD1901-2HCl prepared as described in Example 3B was used directly in solubility assessment and polymorph screens (Table 15). XRPD patterns were further obtained for amorphous RAD1901-2HCl prepared using other solvents.
In the polymorph screen of the amorphous RAD1901-2HCl prepared as described in Example 3B, an aliquot of each sample was examined for its morphology under the microscope, both after maturing at 25° C., and after maturing at 50° C./RT. […] In some instances, the sample appeared to be a mixture of various polymorphic forms, e.g. Form 2 and Form 3 (FIGS. 18B-18C), similar to the mixture of Forms 2 and 3 in Sample 2 having an equilibrium between the two solid forms, depending on the prevailing RH.

CCNCCc1ccc(CN(CC)c2cc(OC)ccc2[C@@H]2CCc3cc(O)ccc3C2)cc1.Cl.Cl [Form A14]
Solubility observation at 10 vol. [1]: X (X = suspension)
Solubility observation at 20 vol. [1]: X (X = suspension)
Solubility observation at 40 vol. [1]: X (X = suspension)
Solubility observation at 60 vol. [1]: X (X = suspension)
XRPD of recovered solid (form) [1]: Form 1

CCNCCc1ccc(CN(CC)c2cc(OC)ccc2[C@@H]2CCc3cc(O)ccc3C2)cc1.Cl.Cl [Form A15]
Solubility observation at 10 vol. [1]: X (X = suspension)
Solubility observation at 20 vol. [1]: X (X = suspension)
Solubility observation at 40 vol. [1]: X (X = suspension)
Solubility observation at 60 vol. [1]: X (X = suspension)
XRPD of recovered solid (form) [1]: Form 1

CCNCCc1ccc(CN(CC)c2cc(OC)ccc2[C@@H]2CCc3cc(O)ccc3C2)cc1.Cl.Cl [Form A17]
Solubility observation at 10 vol. [1]: X (X = suspension)
Solubility observation at 20 vol. [1]: X (X = suspension)
Solubility observation at 40 vol. [1]: X (X = suspension)
Solubility observation at 60 vol. [1]: X (X = suspension)
XRPD of recovered solid (form) [1]: Form 1

CCNCCc1ccc(CN(CC)c2cc(OC)ccc2[C@@H]2CCc3cc(O)ccc3C2)cc1.Cl.Cl [Form A19]
Solubility observation at 10 vol. [1]: X (X = suspension)
Solubility observation at 20 vol. [1]: X (X = suspension)
Solubility observation at 40 vol. [1]: X (X = suspension)
Solubility observation at 60 vol. [1]: X (X = suspension)
XRPD of recovered solid (form) [1]: Form 1

CCNCCc1ccc(CN(CC)c2cc(OC)ccc2[C@@H]2CCc3cc(O)ccc3C2)cc1.Cl.Cl [Form A20]
Solubility observation at 10 vol. [1]: +/− (+/− = nearly dissolved)
Solubility observation at 20 vol. [1]: S (S = solution)
Observation after Cooled to 5° C. [1]: Platelet
XRPD of recovered solid (form) [1]: Pattern 3; also recorded: Form 3

CCNCCc1ccc(CN(CC)c2cc(OC)ccc2[C@@H]2CCc3cc(O)ccc3C2)cc1.Cl.Cl [Form A21]
Observation After 50/RT maturation ([1]; 50° C./RT cycles (8 hr per cycle) up to 5 days): S

CCNCCc1ccc(CN(CC)c2cc(OC)ccc2[C@@H]2CCc3cc(O)ccc3C2)cc1.Cl.Cl [Form A22]
Solubility observation at 10 vol. [1]: +/− (+/− = nearly dissolved)
Solubility observation at 20 vol. [1]: S (S = solution)
Observation after Cooled to 5° C. [1]: Some
XRPD of recovered solid (form) [1]: Form 3*

CCNCCc1ccc(CN(CC)c2cc(OC)ccc2[C@@H]2CCc3cc(O)ccc3C2)cc1.Cl.Cl [Form A23]
Solubility observation at 10 vol. [1]: X (X = suspension)
Solubility observation at 20 vol. [1]: X (X = suspension)
Solubility observation at 40 vol. [1]: +/− (+/− = nearly dissolved)
Solubility observation at 60 vol. [1]: S (S = solution)
Observation after Cooled to 5° C. [1]: S
Observation after Evaporation [1]: Solids,
XRPD of recovered solid (form) [1]: Form 3

CCNCCc1ccc(CN(CC)c2cc(OC)ccc2[C@@H]2CCc3cc(O)ccc3C2)cc1.Cl.Cl [Form A24]
Solubility observation at 10 vol. [1]: X (X = suspension)
Solubility observation at 20 vol. [1]: X (X = suspension)
Solubility observation at 40 vol. [1]: +/− (+/− = nearly dissolved)
Solubility observation at 60 vol. [1]: S (S = solution)
Observation after Cooled to 5° C. [1]: S
Observation after Evaporation [1]: Solids
XRPD of recovered solid (form) [1]: Form 3

CCNCCc1ccc(CN(CC)c2cc(OC)ccc2[C@@H]2CCc3cc(O)ccc3C2)cc1.Cl.Cl [Form B1.]
XRPD post 50° C./RT (form) [2]: Amorphous
Solubility observation at 10 vol. [2]: X (X = suspension)

CCNCCc1ccc(CN(CC)c2cc(OC)ccc2[C@@H]2CCc3cc(O)ccc3C2)cc1.Cl.Cl [Form B2.]
XRPD post 50° C./RT (form) [2]: Form 2/3

CCNCCc1ccc(CN(CC)c2cc(OC)ccc2[C@@H]2CCc3cc(O)ccc3C2)cc1.Cl.Cl [Form B3.]
XRPD post 50° C./RT (form) [2]: Form 2/3
Solubility observation at 10 vol. [2]: X (X = suspension)

CCNCCc1ccc(CN(CC)c2cc(OC)ccc2[C@@H]2CCc3cc(O)ccc3C2)cc1.Cl.Cl [Form B4.]
XRPD post 50° C./RT (form) [2]: Form 2/3
Solubility observation at 10 vol. [2]: X (X = suspension)

CCNCCc1ccc(CN(CC)c2cc(OC)ccc2[C@@H]2CCc3cc(O)ccc3C2)cc1.Cl.Cl [Form B5.]
XRPD post 50° C./RT (form) [2]: Form 3
Solubility observation at 10 vol. [2]: X (X = suspension)

CCNCCc1ccc(CN(CC)c2cc(OC)ccc2[C@@H]2CCc3cc(O)ccc3C2)cc1.Cl.Cl [Form B6.]
XRPD post 50° C./RT (form) [2]: Form 1^+
Solubility observation at 10 vol. [2]: X (X = suspension)

CCNCCc1ccc(CN(CC)c2cc(OC)ccc2[C@@H]2CCc3cc(O)ccc3C2)cc1.Cl.Cl [Form B7.]
XRPD post 50° C./RT (form) [2]: Form 1^+
Solubility observation at 10 vol. [2]: X (X = suspension)

CCNCCc1ccc(CN(CC)c2cc(OC)ccc2[C@@H]2CCc3cc(O)ccc3C2)cc1.Cl.Cl [Form B8.]
XRPD post 50° C./RT (form) [2]: Form 1
Solubility observation at 10 vol. [2]: X (X = suspension)
Observation After maturation at 50° C. ([2]; maturation at 50° C./RT): Crystalline

CCNCCc1ccc(CN(CC)c2cc(OC)ccc2[C@@H]2CCc3cc(O)ccc3C2)cc1.Cl.Cl [Form B10.]
XRPD post 50° C./RT (form) [2]: Form 1
Solubility observation at 10 vol. [2]: X (X = suspension)
Observation After maturation at 50° C. ([2]; maturation at 50° C./RT): Fine

CCNCCc1ccc(CN(CC)c2cc(OC)ccc2[C@@H]2CCc3cc(O)ccc3C2)cc1.Cl.Cl [Form B11.]
Solubility observation at 10 vol. [2]: S (S = solution)
Observation After maturation at 25° C. [2]: S
Observation After maturation at 50° C. ([2]; maturation at 50° C./RT): S

CCNCCc1ccc(CN(CC)c2cc(OC)ccc2[C@@H]2CCc3cc(O)ccc3C2)cc1.Cl.Cl [Form B12.]
XRPD post 25° C. (form) [2]: Form 3
XRPD post 50° C./RT (form) [2]: Form 3
Solubility observation at 10 vol. [2]: S (S = solution)
Observation After maturation at 50° C. ([2]; maturation at 50° C./RT): Lath

CCNCCc1ccc(CN(CC)c2cc(OC)ccc2[C@@H]2CCc3cc(O)ccc3C2)cc1.Cl.Cl [Form B13.]
XRPD post 25° C. (form) [2]: Amorphous
XRPD post 50° C./RT (form) [2]: Poor
Solubility observation at 10 vol. [2]: X (X = suspension)
Observation After maturation at 50° C. ([2]; maturation at 50° C./RT): Some

CCNCCc1ccc(CN(CC)c2cc(OC)ccc2[C@@H]2CCc3cc(O)ccc3C2)cc1.Cl.Cl [Form B14.]
XRPD post 50° C./RT (form) [2]: Poor
Solubility observation at 10 vol. [2]: X (X = suspension)

CCNCCc1ccc(CN(CC)c2cc(OC)ccc2[C@@H]2CCc3cc(O)ccc3C2)cc1.Cl.Cl [Form B15.]
Observation After maturation at 50° C. [2]: Fine
XRPD post 50° C./RT (form) [2]: Form 3

CCNCCc1ccc(CN(CC)c2cc(OC)ccc2[C@@H]2CCc3cc(O)ccc3C2)cc1.Cl.Cl [Form B16.]
XRPD post 50° C./RT (form) [2]: Form 3*

CCNCCc1ccc(CN(CC)c2cc(OC)ccc2[C@@H]2CCc3cc(O)ccc3C2)cc1.Cl.Cl [Form B17.]
Observation After maturation at 50° C. [2]: Fine
XRPD post 50° C./RT (form) [2]: Form 1*

CCNCCc1ccc(CN(CC)c2cc(OC)ccc2[C@@H]2CCc3cc(O)ccc3C2)cc1.Cl.Cl [Form B19.]
XRPD post 25° C. (form) [2]: Form 3
Solubility observation at 10 vol. [2]: X (X = suspension)
Observation After maturation at 25° C. [2]: Crystal
Observation After maturation at 50° C. ([2]; maturation at 50° C./RT): Green

CCNCCc1ccc(CN(CC)c2cc(OC)ccc2[C@@H]2CCc3cc(O)ccc3C2)cc1.Cl.Cl [Form B20.]
XRPD post 50° C./RT (form) [2]: Form 1
Solubility observation at 10 vol. [2]: X (X = suspension)
Observation After maturation at 50° C. ([2]; maturation at 50° C./RT): Crystalline

CCNCCc1ccc(CN(CC)c2cc(OC)ccc2[C@@H]2CCc3cc(O)ccc3C2)cc1.Cl.Cl [Form B21.]
XRPD post 25° C. (form) [2]: Form 1
Observation After maturation at 50° C. ([2]; maturation at 50° C./RT): Needle
